Laboratory results taken from US5468587A, “Hydrogen bond accepting groups on thermal solvents for image separation systems” (Eastman Kodak Company, priority 1993, dated 1995).

How the values were obtained:
[1] = heat activated transfer of image dye (yellow coupler Y-1, developer CD-2) through gelatin interlayer to polymeric dye receiver, Status A blue density; settings: coupler Y-1, CD-2
Description: (§1) Heat Activated Image Transfer. Dried integral films are laminated with gelatin subbed ESTAR™ film base and passed through a set of heated rollers at 0.635 cm./sec. with roller surface temperatures of 110° C. and a pressure of 140 kPa. The two film bases are separated; the gelatin layers adhere to the gelatin subbed ESTAR™ base and are thus separated from the polymeric dye receiver layer and its support. Status A reflection densitometry is obtained on the polymeric dye-receiver layer coated on a reflective support. These density values determined with the appropriate Status A filter are given in Example 1 in Table III.
Thermal Solvent Test Employing a Yellow Dye Forming Coupler. Three film examples are prepared in a manner analogous to examples 1 and 2 above, using a yellow dye forming coupler, Y-1, and a blue sensitized cubic emulsion in place of M-1 and a green sensitized emulsion, respectively. In this example TS-1 is compared with no added hydroxybenzene compound and with a hydroxybenzene without a hydrogen bond accepting functional group (CS-1). The thermal solvent [drawing 8] test layer is coated at gelatin laydown of 1.40 g/m^2 and a thermal solvent test compound at 1.30 g/m^2. The dye generating layer is coated at 1.40 g/m^2 of gelatin, 0.53 g/m^2 of coupler Y-1 and 0.38 g/m^2 of Ag. The photographic development and thermal processing is as described in example 2. […]

[2] = heat activated transfer of image dye (yellow coupler Y-1, developer CD-3) through gelatin interlayer to polymeric dye receiver, Status A blue density; settings: 3 passes; coupler Y-1, CD-3
Description: as §1
Thermal Solvent Test Employing a Yellow Dye Forming Coupler. Three film examples are prepared in a manner analogous to examples 1 and 2 above, using a yellow dye forming coupler, Y-1, and a blue sensitized cubic emulsion in place of M-1 and a green sensitized emulsion, respectively. […]
For all three example films the dye density transferred to the dye-receiverlayer in the absence of a thermal processing step (0-pass) is quite small indicating the absence of significant transfer under aqueous processing. […] For film example 15 in which the interlayer contains both gelatin and the thermal test material, TS-1, there is a substantial transfer of image dye as measured by the blue density. […]

[3] = heat activated transfer of image dye (coupler M-1, developer CD-3) through gelatin interlayer to polymeric dye receiver, Status A green density
Description: The following 17 examples are prepared to examine the ability of materials to effect the transfer of image dye through intervening layers of gelatin binder into a polymeric dye receiver layer and are described by the coating format shown in FIG. 2. The first layer (FIG. 2, layer 14) contains gelatin binder and the material to be tested as a thermal solvent while the upper layer (FIG. 2, layer 16) contains the image generating chemistry comprising a silver chloride emulsion and a dispersion of a dye generating coupler in a gelatin binder. A third, protective overcoat, layer (FIG. 2, layer 15) containing gelatin and hardener is applied over the first two gelatin test layers.
Examples 1 and 2 describe in detail the preparation of the solutions and dispersions used in these examples. Examples 3 and 4 describe the same film samples processed in a second developer. Example 1 contains no added material in the first gelatin layer. Example 2 is an example of a compound of our invention according to formula I.
Gelatin Interlayer Melt Preparation. This is an interlayer consisting of only gelatin that serves as a control for comparison of the effect of added materials on transfer of heat-transferable dyes through gelatin layers. […]

SMILES | transfer of the integral dye density to the receiver layer [1] | transfer of the integral dye density to receiver [2] | transfer of the dye density in the original image ([3]; 1-pass) [%] | transfer of the dye density in the original image ([3]; 3-pass) [%]
CCCCCCCCCCCCc1ccc(O)cc1 [CS-1] | less than 4% | less than 6% | – | –
CCCCCCCCCCS(=O)(=O)c1ccc(O)cc1 [TS-1, 4-n-Decylsulfonylphenol] | – | – | 45 | 71
